Data from patent US20250171762A1, “THERAPEUTICAL PEPTIDOMIMETIC” (UNIVERSITA' DEGLI STUDI DI ROMA "LA SAPIENZA", priority 2021, published 2025).
Entries after “also recorded” stand apart in the source; their conditions may differ. Non-standard residues stand in square brackets, D forms with d. Residues, ends and D or L forms follow the SMILES beside them. No end group written: not given here.

Key:
[1] = system: m·3243A>G mutant cybrids, m·8344A>G mutant cybrids and healthy control cells; assay: Mitochondrial ToxGlo Assay (cyto- and mitotoxicity)
Experimental: Images show the effect of increasing PMT concentrations on healthy and mutant cells, compared with the effect of a cytotoxic (C1) and a mitotoxic (C2) agent, evaluated using the Mitochondrial ToxGlo™ Assay.
The X and Y axis show the compounds incubated with cells and the ratio between fluorescent and luminescent signal, respectively. In this assay, fluorescence increase indicates a decrease in cell membrane integrity, and luminescence decrease indicates a decrease in cellular ATP levels. […] The horizontal black line represents fluorescence/luminescence signal ratio of untreated cells. WT: wild type; 3243: cells bearing the mutation m·3243A>G in mt-tRNA^Leu(UUR); L-8344 and H-8344: cells bearing low and high load of mutation m·8344A>G in mt-tRNA^Lys.
Cybrids were plated on a 96-well plate in normal growth conditions (i.e., glucose medium) and treated with different PMT concentrations. […] Fluorescence and luminescence were measured with a GloMax Multi+Luminometer. […]
Mitochondrial toxicity exerted by PMT was measured using the Mitochondrial ToxGlo™ Assay (Promega Italia Srl., Milano, Italy) according to the manufacturer's protocol. […] Subsequently, cells were incubated with specific reagents and fluorescence or luminescence were measured with a GloMax Multi+Luminometer (Promega Italia Srl., Milano, Italy).

[2] = Plasma stability: incubation in human plasma, UPLC-MS quantification; type: in vitro ADME; details: for plasma stability compared with another peptide: human plasma, FIG. 4; for degradation in human plasma: no time stated
Experimental: Panel B. Time course decay of β32_33, PMT, PMT-8a and PMT-8b incubated up to 72 h with human plasma from four healthy subjects. […] The Y axis indicates the signal intensity of the four peptides. Samples of plasma were obtained from healthy volunteers and immediately used for the analysis. Either β32_33 peptide or PMT for the experiment in panel A, and β32_33 peptide, PMT, PMT-8a or PMT-8b for the experiment in panel B, was incubated in plasma at a final concentration of 0.2 mM, at 37° C., up to 3 h (A) or 72 h (B). At the indicated time points, i.e., T0 and 3 h (A) or T0, 1.5, 3, 6 and 72 h (B), aliquots of 200 μL were treated with 3 volumes of acetonitrile containing 1% formic acid and extracted by a solid phase extraction system to remove proteins and phospholipids. Samples were dried under vacuum, resuspended in 100 μL of 0.1% formic acid containing 5% acetonitrile, and analyzed with a Water Acquity H-Class UPLC system equipped with a single-quadruple mass detector with electrospray ionization source. Samples were separated onto a reverse phase C18 column by performing a gradient with two mobile phases consisting of 0.1% formic acid in water and 0.1% formic acid in acetonitrile at a flow rate of 0.5 mL/min. Quantification was performed by Selected lon Recording (SIR): at m/z=917.88, corresponding to the [M+2 H]^2+ion obtained from either β32_33 or PMT; at m/z=961.42, corresponding to the [M+H]^+ion obtained from PMT-8a; and at m/z=869.48, corresponding to the [M+H]^+ion obtained from PMT-8b.
In order to evaluate whether compounds (βp and d-βp) are stable in blood or hydrolyzed by plasma peptidases, we set up a chromatographic assay to evaluate compound concentration after incubation in human plasma.
Blood was drawn by venipuncture in vacutainer containing EDTA as an anticoagulant.
Two different samples from healthy volunteers were used. Plasma was separated by centrifugation and immediately used for the experiments. Each compound was dissolved in 500 uL plasma at a final concentration of 0.2 mM, and split into two aliquots, one of which was immediately analyzed to assess the basal compound level; the other was incubated at 37° C. for 3 hours under gentle shaking. In order to perform chromatographic analysis the samples were treated with 3 volumes of acetonitrile containing 1% formic acid, and then extracted by using the Ostro™ pass-through sample preparation system to remove proteins and phospholipids. Samples were dried under vacuum and then resuspended in 100 uL of 0.1% formic acid containing 5% acetonitrile, then directly injected onto the chromatographic column.
Chromatographic analyses were performed on a Water Acquity H-Class UPLC system (Waters, Milford, MA, USA), including a quaternary solvent manager (QSM), a sample manager with a flow through needle system (FTN), a photodiode array detector (PDA) and a single-quadruple mass detector with electrospray ionization source (ACQUITY QDa). Analyses were performed on a reverse phase C18 column (75 mm×3.2 mm i.d., 2.5 μm particle size). The mobile phase was solvent A, 0.1% formic acid in water, and solvent B, 0.1% formic acid in acetonitrile. The flow rate was 0.5 mL/min, the column temperature was set at 25° C. and the elution was performed by linearly increasing the concentration of solvent B up to 70% in 7 minutes. Mass spectrometric detection was performed in the positive electrospray ionization mode, using nitrogen as the nebulizer gas. Analyses were performed in the Total lon Current (TIC) mode with a mass range of 100-1200 m/z. The capillary voltage was 0.8 kV, cone voltage 8 V, ion source temperature 120° C. and probe temperature 600° C. Quantification of each compound was performed by Selected lon Recording (SIR) at m/z 917.88, corresponding to the […]

[3] = system: cybrids bearing the m·3243A>G mutation in mt-tRNA^Leu(UUR); assay: Fluorescence confocal microscopy of Cy5-linked constructs, uptake and mitochondrial co-localization; type: cell-based, human; details: 0.25 μM, 24 hours, Mitotracker Red
Text: Top row (constructs): exogenously administered constructs covalently linked to a fluorescent dye (Cy5) are localized within cells.
Middle row (Mitotracker red): mitochondria within the same cells shown in the top row are highlighted by Mitotracker red, a dye able to link specifically and exclusively to mitochondria.
The cells used for the experiments are trans-mitochondrial hybrids (hereafter named cybrids) bearing the m·3243A>G mutation in mt-tRNA^Leu(UUR), which is associated with the MELAS syndrome.
Cells were incubated for 24 hours with 0.25 μM of constructs. Half an hour before imaging, cells were stained with Mitotracker Red. Finally, fluorescence signals were detected with a laser scanning confocal microscope. PCC: Pearson's Correlation Coefficient (mean±SEM of six images).
Constructs made of compounds listed in Table 1 linked to the Cy5 fluorophore via maleimide cross-linker, were administered to sub-confluent cybrid cell cultures at 0.25 μM in glucose medium. […] The fluorescence images were analyzed with the ImageJ software (14, https://imagej.nih.gov/ij/, 1997-2018) to determine the Pearson's correlation coefficient.
The uptake and localization of Cy5-conjugated constructs in cybrids was assessed by flow cytometry, confocal microscopy, and immunoblot analysis on isolated mitochondria (FIG. 1). […]

[4] = system: m·3243A>G mt-tRNA^Leu(UUR) mutant cybrids; assay: Cell viability, Trypan blue dye exclusion, galactose vs glucose medium; type: cell-based, human; details: 5 μM, galactose medium, 24 hours
Experimental: For viability assessment, cells were plated in either glucose or galactose medium. The reason for this is that a viability phenotype can be appreciated in cells growing on galactose, which forces cells to rely on mitochondrial respiration, but not in cells growing on glucose. After 24 hours incubation, the number of viable cells in the galactose medium was normalized to the number of viable cells in glucose at the same time point, which represents the normal growth condition. Data are compared with the value of mutant cells incubated with vehicle only. Mean±SEM of at least three independent experiments is shown.
For viability assessment, cells were plated in either glucose or galactose medium. The reason for this is that a viability phenotype can be appreciated in cells growing on galactose, which forces cells to rely on mitochondrial respiration, but not in cells growing on glucose. After 24 hours incubation the number of viable cells in galactose medium was normalized to the number of viable cells in glucose (that represents the normal growth condition) at the same time point. Data are compared with the value of mutant cells incubated with vehicle only. Means±SEM of at least two independent experiments are shown.
Previously established osteosarcoma derived (143B.TK-) cybrid cell lines from patients, which bear either the m·3243A>G mutation in mt-tRNA^Leu(UUR) or the m·8344A>G mutation in mt-tRNA^Lys, and controls were used (generous gift from Dr Valeria Tiranti and Dr Valerio Carelli).
Cybrid cells were cultured in Dulbecco's modified Eagle's medium (DMEM), supplemented with 4.5 g/l d-glucose, 10% foetal bovine serum (FBS), 2 mM I-glutamine, 50 μg/ML uridine, 100 U/mL penicillin, and […] (referred to as glucose medium) in a humidified atmosphere of 95% air and 5% CO2 at 37° C. For cell viability experiments, cells were grown either in glucose medium or in glucose-free DMEM, supplemented with 5 mM galactose, […] sodium pyruvate, and 10% FBS (referred to as galactose medium). The reason for using the latter medium is that a pathological phenotype can be appreciated in cells growing on galactose, which forces cells to rely on mitochondrial respiration, but not in cells growing on glucose.
[…] Cells were switched in glucose or galactose and after 24 hours cell viability was measured by the Trypan blue dye exclusion assay. Cells were harvested with 0.25% trypsin and 0.2% EDTA, washed, suspended in PBS in the presence of Trypan blue solution (Sigma-Aldrich) at 1:1 ratio and counted using a hemocytometer. The number of viable cells in galactose medium was expressed as a percentage of the number of cells in glucose medium.
(§1) To evaluate the effect of the compounds on viability, cybrids were grown in glucose-free medium supplemented with galactose (galactose medium), a condition that both forces cells to rely on the mt respiratory chain for ATP synthesis and causes a significant growth reduction in the presence of mutations.
as §1, with “PMT and M-PMT” for “the compounds”

Row | Compound | effect on fluorescence and luminescence (positive controls) ([1]; 400 μg/ml digitonin (C1) or 100 μl sodium azide (C2), three hours) | cyto- and mito-toxicity ([1]; 5, 10, 20 μM (up to 20 μM), mutant and wild-type cells) | plasma stability compared with another peptide [2] | degradation in human plasma [2] | detectable degradation in plasma ([2]; second experiment, plasma of four healthy volunteers, up to 72 h) | penetration of cell membranes and co-localization with mitochondria [3] | remaining at 72 h, 0.2 mM ([2]; human, human plasma from healthy volunteers, second experiment, plasma of four healthy volunteers, 72 h, read-out: peptide present after incubation in plasma) | viability of mutant cybrids vs non treated mutant cells [4]
1 | [N-]=[N+]=[N-] [sodium azide, reference compound] | a decrease in luminescence and has no effect on fluorescence |  |  |  |  |  |  | 
2 | d(K)d(K)d(S)d(F)d(L)d(S)d(P)d(R) ([dK][dK][dS][dF][dL][dS][dP][dR]) [PMT-8a, PMT fragment comprising PMT residues 1-8] |  | neither cytotoxic nor mitotoxic | even more stable than the full-length 16-residue long PMT; also recorded: slower degradation than the β32_33 peptide | does not undergo degradation at all | did not undergo detectable degradation | Penetrate Cell Membranes and Co-Localize with Mitochondria |  | 
3 | CC[C@@H](C)[C@@H](NC(=O)[C@@H](CC(C)C)NC(=O)[C@@H](C)NC(=O)[C@H](NC(=O)[C@@H](CCCNC(=N)N)NC(=O)[C@H]1CCCN1C(=O)[C@@H](CO)NC(=O)[C@H](N)CC(C)C)[C@H](C)O)C(=O)O [PMT-8b, d(L)d(S)d(P)d(R)d(T)d(A)d(L)d(I)] (H-[dL][dS][dP][dR][dT][dA][dL][dI]-OH; N-terminus and C-terminus assumed) |  |  | even more stable than the full-length 16-residue long PMT; also recorded: slower degradation than the β32_33 peptide | does not undergo degradation at all |  | Penetrate Cell Membranes and Co-Localize with Mitochondria | 80% | significantly improved
